Test results reported in PubChem BioAssay (NCI).
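Method: 48-hour compound exposure of cells in 96-well plates, five concentrations, linear interpolation of endpoints. GI50 marks 50% less growth. TGI denotes the concentration required for complete inhibition of growth.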

What was measured:
Assay in all cases: NCI anticancer screen, dose series, 48 h
[1] = system: HCT-15 colon
[2] = system: HS 578T breast
[3] = system: A498 renal
[4] = system: A549 NSCLC
[5] = system: MDA-MB-231 breast
[6] = system: COLO 205 colon
[7] = system: SK-MEL-5 melanoma
[8] = system: CCRF-CEM leukemia
[9] = system: HL-60(TB) leukemia
[10] = system: KM12 colon
[11] = system: UACC-62 melanoma
[12] = system: NCI-H522 lung
[13] = system: T-47D breast
[14] = system: HT29 colon
[15] = system: HOP-62 NSCLC
[16] = system: SK-OV-3 ovarian
[17] = system: MCF7 breast
[18] = system: SNB-19 CNS
[19] = system: HOP-92 NSCLC
[20] = system: MALME-3M melanoma
[21] = system: SF-539 CNS
[22] = system: ACHN renal
[23] = system: IGROV1 ovarian
[24] = system: SK-MEL-2 melanoma
[25] = system: U251 CNS
[26] = system: OVCAR-5 ovarian
[27] = system: UO-31 renal
[28] = system: SN12C renal
[29] = system: TK-10 renal
[30] = system: MOLT-4 leukemia
[31] = system: DU-145 prostate
[32] = system: K-562 leukemia
[33] = system: MDA-MB-435
[34] = system: SF-268 CNS
[35] = system: RXF 393 renal
[36] = system: BT-549 breast
[37] = system: OVCAR-3 ovarian
[38] = system: PC-3 prostate
[39] = system: NCI-H460 lung
[40] = system: OVCAR-8 ovarian
[41] = system: SNB-75 CNS
[42] = system: CAKI-1 renal
[43] = system: HCT-116 colon
[44] = system: NCI-H226 lung
[45] = system: NCI/ADR-RES ovarian
[46] = system: SR leukemia
[47] = system: NCI-H23 lung
[48] = system: LOX IMVI melanoma
[49] = system: 786-0 renal
[50] = system: M14 melanoma
[51] = system: SK-MEL-28 melanoma
[52] = system: SW-620 colon
[53] = system: UACC-257 melanoma
[54] = system: OVCAR-4 ovarian
[55] = system: HCC-2998 colon

`CCOC(=O)N1C/C(=C/c2ccc(Cl)cc2)C(=O)/C(=C/c2ccc(Cl)cc2)C1` showed a GI50 [1] of 2.18 µM, a TGI [1] of 7.24 µM and a GI50 [2] of 3.94 µM. The TGI [2] was 41.8 µM, the GI50 [3] was 12 µM and the TGI [3] was 26.4 µM. For the same compound, the GI50 [4] was 3.06 µM, the TGI [4] was 20.7 µM and the GI50 [5] was 2.88 µM. It also gave a TGI [5] of 9.37 µM, a GI50 [6] of 2.96 µM and a TGI [6] of 8.83 µM. It also gave a GI50 [7] of 3.43 µM, a TGI [7] of 13.1 µM and a GI50 [8] of 3.24 µM. It also gave a TGI [8] of over 100 µM, a GI50 [9] of 7.04 µM and a TGI [9] of 88.7 µM. It also gave a GI50 [10] of 2.1 µM, a TGI [10] of 4.39 µM and a GI50 [11] of 3 µM. For the same compound, the TGI [11] was 14.3 µM, the GI50 [12] was 9.77 µM and the TGI [12] was 22.4 µM. For the same compound, the GI50 [13] was 3.74 µM, the TGI [13] was 35.5 µM and the GI50 [14] was 1.97 µM. For the same compound, the TGI [14] was 3.95 µM, the GI50 [15] was 2.47 µM and the TGI [15] was 5.72 µM. For the same compound, the GI50 [16] was 5.42 µM, the TGI [16] was 20.8 µM and the GI50 [17] was 1.55 µM. The TGI [17] was 8.04 µM, the GI50 [18] was 4.66 µM and the TGI [18] was 18.4 µM. It also gave a GI50 [19] of 10.5 µM, a TGI [19] of 32 µM and a GI50 [20] of 15.4 µM. For the same compound, the TGI [20] was 32 µM, the GI50 [21] was 2.67 µM and the TGI [21] was 7.81 µM. For the same compound, the GI50 [22] was 3.04 µM, the TGI [22] was 10.5 µM and the GI50 [23] was 3.52 µM. For the same compound, the TGI [23] was 13 µM, the GI50 [24] was 19.6 µM and the TGI [24] was 40.9 µM. For the same compound, the GI50 [25] was 1.98 µM, the TGI [25] was 4.18 µM and the GI50 [26] was 4.43 µM. For the same compound, the TGI [26] was 19.8 µM, the GI50 [27] was 2.36 µM and the TGI [27] was 7.2 µM. For the same compound, the GI50 [28] was 2.84 µM, the TGI [28] was 11.7 µM and the GI50 [29] was 5.01 µM. For the same compound, the TGI [29] was 17.6 µM, the GI50 [30] was 4.65 µM and the TGI [30] was over 100 µM. The GI50 [31] was 4.36 µM, the TGI [31] was 15.9 µM and the GI50 [32] was 3.34 µM. The TGI [32] was over 100 µM, the GI50 [33] was 3.33 µM and the TGI [33] was 13 µM. For the same compound, the GI50 [34] was 3.86 µM, the TGI [34] was 14.7 µM and the GI50 [35] was 1.69 µM. For the same compound, the TGI [35] was 3.34 µM, the GI50 [36] was 2.41 µM and the TGI [36] was 5.6 µM. It also gave a GI50 [37] of 2.22 µM, a TGI [37] of 4.57 µM and a GI50 [38] of 2.94 µM. The TGI [38] was 15 µM, the GI50 [39] was 3.86 µM and the TGI [39] was 16.4 µM. The GI50 [40] was 3.81 µM, the TGI [40] was 86.4 µM and the GI50 [41] was 3.15 µM. The TGI [41] was 16.2 µM, the GI50 [42] was 4.57 µM and the TGI [42] was over 100 µM. For the same compound, the GI50 [43] was 1.04 µM, the TGI [43] was 2.72 µM and the GI50 [44] was 16.9 µM. The TGI [44] was 52 µM, the GI50 [45] was 7.45 µM and the TGI [45] was 95.6 µM. For the same compound, the GI50 [46] was 1.49 µM, the TGI [46] was over 100 µM and the GI50 [47] was 5.37 µM. The TGI [47] was 27.7 µM, the GI50 [48] was 1.89 µM and the TGI [48] was 4.22 µM. For the same compound, the GI50 [49] was 2.08 µM, the TGI [49] was 4.35 µM and the GI50 [50] was 4.23 µM. For the same compound, the TGI [50] was 17.8 µM, the GI50 [51] was 3.43 µM and the TGI [51] was 12.7 µM. It also gave a GI50 [52] of 2.06 µM, a TGI [52] of 4.73 µM and a GI50 [53] of 8.54 µM. It also gave a TGI [53] of 23.9 µM, a GI50 [54] of 3.35 µM and a TGI [54] of 14.4 µM. The GI50 [55] was 2.32 µM and the TGI [55] was 5.29 µM.
